Results on 44 compounds are retold here after US8916702B2 (priority 2012, dated 2014).

Where two headings read alike, the source gives them in different places.

In the assay the test system is HCV pseudoparticles (genotype 1a HCV E1 and E2 envelope, H77C isolate). Kind of assay: microbe, parasite or virus in culture. The class given is cell-based. The following applies: Hepatitis C virus.
Where [1] appears, read: Huh-7, read-out: Activity (EC50 class), HCV pseudoparticles (genotype 1a, H77C) in Huh7 cells, EC50 expressed as class A/B.
The mark [2] stands for this setting: Huh-7, 48 h, read-out: Activity (EC50 class), HCV pseudoparticle infection of Huh7 cells, luciferase 2 days after infection, EC50 expressed as class A/B.
The mark [3] stands for this setting: Huh-7, 48 h, read-out: Activity (EC50 class), HCV pseudoparticles, Huh7 cells, luciferase 2 days after infection, average of duplicates.
The mark [4] stands for this setting: Huh-7, 48 h, HCV pseudoparticle infection of Huh7 cells, luciferase 2 days after infection, average of duplicates.
[5] abbreviates: Huh-7, 48 h, HCV pseudoparticles (genotype 1a, H77C) in Huh7 cells, average of duplicate, luciferase 2 days after infection.

As usually defined, the EC50 is the concentration giving half of the maximal effect. With `O=C(NCC[C@H](NC(=O)c1ccc(Nc2nc(NC3(c4ccc(Cl)cc4)CC3)nc(OCC(F)(F)F)n2)cc1)C(=O)O)C(=O)Nc1ccc(Cc2ccncc2)cc1` [Compound 3224], under setting [1], the EC50 lay within 0.01 to 10 nM.

Consider `Cn1ccnc1NC(=O)C(=O)NCC[C@H](NC(=O)c1ccc(Nc2nc(NC3(c4ccc(Cl)cc4)CC3)nc(OCC(F)(F)F)n2)cc1)C(=O)O` [Compound 1264], for which the EC50 under setting [2] fell in the range of 10 to 1000 nM.

As for `Cc1ccc(NC(=O)C(=O)NCC(C)(C)CNC(=O)c2ccc(Nc3nc(NC4(c5ccc(Cl)cc5)CC4)nc(OCc4cccc(F)c4)n3)cc2)cc1` [Compound 3846], under setting [3], the EC50 lay in the range of 0.01 to 10 nM.

As to `NC(=O)C(=O)NCCCNC(=O)c1ccc(Nc2nc(NC3(c4ccc(Cl)cc4)CC3)nc(OCC(F)(F)F)n2)cc1` [Compound 3342], under setting [1], the EC50 was 0.01 to 10 nM.

Consider `O=C(NC[C@H]1CCC[C@H]1NC(=O)c1ccc(Nc2nc(NC3(c4ccc(Cl)cc4)CC3)nc(OCC(F)(F)F)n2)cc1)C(=O)Nc1ccc(F)cc1` [Compound 1474], for which, under setting [2], the concentration for a half-maximal effect (EC50) was in the range of 0.01 to 10 nM.

Turning to `Cc1ccc(NC(=O)C(=O)NCC(C)(O)CNC(=O)c2ccc(Nc3nc(NC4(c5ccc(Cl)cc5)CC4)nc(OCC(F)(F)F)n3)cc2)cc1` (centres unmarked) [Compound 3832], the EC50 under setting [3] fell in the range of 0.01 to 10 nM.

Turning to `COC(=O)[C@H](CNC(=O)C(=O)Nc1cccc(C(C)(C)C)c1)NC(=O)c1ccc(Nc2nc(NC3(c4ccc(Cl)cc4)CC3)nc(OCC(F)(F)F)n2)cc1` [Compound 3704], the EC50 under setting [3] lay in the range of 0.01 to 10 nM.

Consider `COC(=O)[C@H](CNC(=O)C(=O)NCCc1cccc(OC)c1)NC(=O)c1ccc(Nc2nc(NC3(c4ccc(Cl)cc4)CC3)nc(OCC(F)(F)F)n2)cc1` [Compound 1286], for which the EC50 under setting [2] is 0.01 to 10 nM.

Take `COC(=O)[C@H](CNC(=O)C(=O)NC(C)(C)Cc1ccc(F)cc1)NC(=O)c1ccc(Nc2nc(NC3(c4ccc(Cl)cc4)CC3)nc(OCC(F)(F)F)n2)cc1` [Compound 1296]: under setting [2], the 50% effective concentration (EC50) fell in the range of 0.01 to 10 nM.

Regarding `COC(=O)[C@H](CCNC(=O)C(=O)Nc1ccc(O)nc1)NC(=O)c1ccc(Nc2nc(NC3(c4ccc(Cl)cc4)CC3)nc(OCC(F)(F)F)n2)cc1` [Compound 1520], under setting [2], the EC50 lay within 0.01 to 10 nM.

For `COC(=O)[C@H](CNC(=O)C(=O)Nc1ccc(-c2csc(N3CCOCC3)n2)cc1)NC(=O)c1ccc(Nc2nc(NC3(c4ccc(Cl)cc4)CC3)nc(OCC(F)(F)F)n2)cc1` [Compound 3201], under setting [1], the concentration giving a half-maximal response (EC50) was 0.01 to 10 nM.

For `CC(C)(CNC(=O)C(=O)Nc1ccc2cn[nH]c2c1)CNC(=O)c1ccc(Nc2nc(NC3(c4ccc(Cl)cc4)CC3)nc(OCC(F)(F)F)n2)cc1` [Compound 3022], the EC50 under setting [1] was 0.01 to 10 nM.

Take `CC(C)(CNC(=O)C(=O)NCc1ccc(F)cc1)CNC(=O)c1ccc(Nc2nc(NC3(c4ccc(Cl)cc4)CC3)nc(OCC(F)(F)F)n2)cc1` [Compound 1549]: the half-maximal effective concentration (EC50) under setting [2] lay within 0.01 to 10 nM.

For `C[C@H](NC(=O)C(=O)NCC[C@H](NC(=O)c1ccc(Nc2nc(NC3(c4ccc(Cl)cc4)CC3)nc(OCC(F)(F)F)n2)cc1)C(=O)O)C1CC1` [Compound 1435], the EC50 under setting [4] was 0.11 nM and the EC50 under setting [2] lay within 0.01 to 10 nM.

Consider `CC(C)(CNC(=O)C(=O)Nc1ccccc1C(=O)N1CCCCC1)CNC(=O)c1ccc(Nc2nc(NC3(c4ccc(Cl)cc4)CC3)nc(OCC(F)(F)F)n2)cc1` [Compound 3063], for which the EC50 under setting [1] was 0.01 to 10 nM.

Take `COC(=O)[C@H](CNC(=O)C(=O)Nn1cnnc1)NC(=O)c1ccc(Nc2nc(NC3(c4ccc(Cl)cc4)CC3)nc(OCC(F)(F)F)n2)cc1` [Compound 1243]: under setting [2], the concentration for a half-maximal effect (EC50) was in the range of 10 to 1000 nM.

In the case of `O=C(NCC[C@H](NC(=O)c1ccc(Nc2nc(NC3(c4ccc(Cl)cc4)CC3)nc(OCC(F)(F)F)n2)cc1)C(=O)O)C(=O)Nc1cccc(-c2ccncc2)c1` [Compound 3637], under setting [3], the EC50 was in the range of 0.01 to 10 nM.

Turning to `CCOCCOc1ccc(NC(=O)C(=O)NC[C@H](NC(=O)c2ccc(Nc3nc(NC4(c5ccc(Cl)cc5)CC4)nc(OCC(F)(F)F)n3)cc2)C(=O)OC)cc1` [Compound 3192], the EC50 under setting [1] lay in the range of 0.01 to 10 nM.

For the compound `COC(=O)[C@H](CCNC(=O)C(=O)Nc1ccc(-n2ccnc2C)cc1)NC(=O)c1ccc(Nc2nc(NC3(c4ccc(Cl)cc4)CC3)nc(OCC(F)(F)F)n2)cc1` [Compound 3320], the EC50 was 8.8 nM under setting [5] and 0.01 to 10 nM under setting [1].

Consider `Cc1ccc(NC(=O)C(=O)N(CCO)CCCNC(=O)c2ccc(Nc3nc(NC4(c5ccc(Cl)cc5)CC4)nc(OCC(F)(F)F)n3)cc2)cc1O` [Compound 3506], for which the midpoint of the response under setting [5], the EC50, lay at 0.51 nM and the EC50 under setting [1] lay in the range of 0.01 to 10 nM.

Take `O=C(NCC(O)CNC(=O)c1ccc(Nc2nc(NC3(c4ccc(Cl)cc4)CC3)nc(OCC(F)(F)F)n2)cc1)C(=O)N1CCCCC1` (centres unmarked) [Compound 3465]: the EC50 under setting [1] lay within 0.01 to 10 nM.

On to `COC(=O)[C@H](CCNC(=O)C(=O)NC1CCCCCCC1)NC(=O)c1ccc(Nc2nc(NC3(c4ccc(Cl)cc4)CC3)nc(OCC(F)(F)F)n2)cc1` [Compound 1104], for which the EC50 under setting [2] is 0.01 to 10 nM.

Regarding `COC(=O)[C@H](CCNC(=O)C(=O)NCc1ccc(F)c(F)c1)NC(=O)c1ccc(Nc2nc(NC3(c4ccc(Cl)cc4)CC3)nc(OCC(F)(F)F)n2)cc1` [Compound 1159], the EC50 under setting [2] was in the range of 0.01 to 10 nM.

As to `Cc1ccc2sc(NC(=O)C(=O)NCC(C)(C)CNC(=O)c3ccc(Nc4nc(NC5(c6ccc(Cl)cc6)CC5)nc(OCC(F)(F)F)n4)cc3)nc2c1` [Compound 3818], the EC50 under setting [3] lay in the range of 0.01 to 10 nM.

Consider `CC(C)(CNC(=O)C(=O)Nc1ccc(C#N)cc1)CNC(=O)c1ccc(Nc2nc(NC3(c4ccc(Cl)cc4)CC3)nc(OCC(F)(F)F)n2)cc1F` [Compound 3516], for which, under setting [1], the EC50 was 0.01 to 10 nM.

For the compound `O=C(NCC[C@H](NC(=O)c1ccc(Nc2nc(NC3(c4ccc(Cl)cc4)CC3)nc(OCC(F)(F)F)n2)cc1)C(=O)O)C(=O)Nc1ccc(-n2cncn2)cc1` [Compound 3231], the half-maximal effective concentration (EC50) under setting [1] was 0.01 to 10 nM.

On to `Cc1ccc(CNC(=O)C(=O)NCC[C@H](NC(=O)c2ccc(Nc3nc(NC4(c5ccc(Cl)cc5)CC4)nc(OCC(F)(F)F)n3)cc2)C(=O)O)cc1F` [Compound 1191], for which the EC50 under setting [4] turned out to be 0.17 nM and the EC50 under setting [2] was 0.01 to 10 nM.

For `COC(=O)[C@H](CCNC(=O)C(=O)Nc1ccc(Oc2cccnc2)cc1)NC(=O)c1ccc(Nc2nc(NC3(c4ccc(Cl)cc4)CC3)nc(OCC(F)(F)F)n2)cc1` [Compound 3324], the concentration giving a half-maximal response (EC50) under setting [1] lay in the range of 0.01 to 10 nM.

As for `COc1ccc(NC(=O)C(=O)NCC(C)(C)CNC(=O)c2ccc(Nc3nc(NC4(c5ccc(Cl)cc5)CC4)nc(OCC(F)(F)F)n3)cc2)c(C(F)(F)F)c1` [Compound 3456], under setting [1], the EC50 was 0.01 to 10 nM.

As for `COC(=O)[C@H](CNC(=O)C(=O)Nc1cccc(S(=O)(=O)C(F)(F)F)c1)NC(=O)c1ccc(Nc2nc(NC3(c4ccc(Cl)cc4)CC3)nc(OCC(F)(F)F)n2)cc1` [Compound 3710], under setting [3], the EC50 was in the range of 0.01 to 10 nM.

In the case of `O=C(NC/C(=N/C(=O)c1ccc(Nc2nc(NC3(c4ccc(Cl)cc4)CC3)nc(OCC(F)(F)F)n2)cc1)C(=O)O)C(=O)Nc1ccc(N2CCCC2=O)cc1` [Compound 3165], the EC50 under setting [1] is 0.01 to 10 nM.

Regarding `COC(=O)[C@H](CNC(=O)C(=O)Nc1cccc(Oc2ccccc2)c1)NC(=O)c1ccc(Nc2nc(NC3(c4ccc(Cl)cc4)CC3)nc(OCC(F)(F)F)n2)cc1` [Compound 3694], the EC50 was 2.23 nM (Huh-7, 48 h, HCV pseudoparticles, Huh7 cells, luciferase 2 days after infection, average of duplicates) and 0.01 to 10 nM under setting [3].

Consider `O=C(NC[C@H](NC(=O)c1ccc(Nc2nc(NC3(c4ccc(Cl)cc4)CC3)nc(OCC(F)(F)F)n2)cc1)C(=O)O)C(=O)Nc1ccc(CC(F)(F)F)cc1` [Compound 3297], for which the EC50 under setting [1] is 0.01 to 10 nM.

In the case of `COc1cc(OC)nc(-c2ccc(NC(=O)C(=O)NCC(C)(C)CNC(=O)c3ccc(Nc4nc(NC5(c6ccc(Cl)cc6)CC5)nc(OCC(F)(F)F)n4)cc3)cc2)n1` [Compound 1596], the EC50 under setting [2] fell in the range of 0.01 to 10 nM.

As for `Cc1cc(NC(=O)C(=O)NCC(C)(C)CNC(=O)c2ccc(Nc3nc(NC4(c5ccc(Cl)cc5)CC4)nc(OCC(F)(F)F)n3)cc2)ccc1F` [Compound 3060], under setting [1], the EC50 lay within 0.01 to 10 nM.

As for `Cc1ccc(NC(=O)C(=O)NC/C(=N/C(=O)c2ccc(Nc3nc(NC4(c5ccc(Cl)cc5)CC4)nc(OCC(F)(F)F)n3)cc2)C(=O)O)cc1` [Compound 3153], under setting [1], the EC50 was 0.01 to 10 nM.

In the case of `COC(=O)[C@H](CNC(=O)C(=O)Nc1ccc(O)nc1)NC(=O)c1ccc(Nc2nc(NC3(c4ccc(Cl)cc4)CC3)nc(OCC(F)(F)F)n2)cc1` [Compound 3722], the EC50 under setting [3] lay in the range of 0.01 to 10 nM.

`COC(=O)[C@@H](CCNC(=O)C(=O)Nc1cccc(-c2cnco2)c1)NC(=O)c1ccc(Nc2nc(NC3(c4ccc(Cl)cc4)CC3)nc(OCC(F)(F)F)n2)cc1` [Compound 3579]: under setting [1], the EC50 lay in the range of 0.01 to 10 nM.

Take `CC(C)(CNC(=O)C(=O)Nc1ccc(Cl)c(Cl)c1)CNC(=O)c1ccc(Nc2nc(NC3(c4ccc(Cl)cc4)CC3)nc(OCC(F)(F)F)n2)cc1` [Compound 3793]: the EC50 under setting [3] lay in the range of 0.01 to 10 nM.

Regarding `Cn1nccc1NC(=O)C(=O)NCC[C@H](NC(=O)c1ccc(Nc2nc(NC3(c4ccc(Cl)cc4)CC3)nc(OCC(F)(F)F)n2)cc1)C(=O)O` [Compound 1281], under setting [2], the EC50 was 0.01 to 10 nM.

On to `COC(=O)[C@H](CCNC(=O)C(=O)Nc1ccc(C(C)(C)C)cc1)NC(=O)c1ccc(Nc2nc(NC3(c4ccc(Cl)cc4)CC3)nc(OCC(F)(F)F)n2)cc1` [Compound 3329], for which, under setting [1], the EC50 was in the range of 0.01 to 10 nM.

Take `COC(=O)/C(CCNC(=O)C(=O)Nc1cncc(-c2nncn2C)c1)=N\C(=O)c1ccc(Nc2nc(NC3(c4ccc(Cl)cc4)CC3)nc(OCC(F)(F)F)n2)cc1` [Compound 3597]: the EC50 is 3.05 nM under setting [5] and 0.01 to 10 nM under setting [1].

With `COC(=O)[C@H](CNC(=O)C(=O)NC1CCCCC1)NC(=O)c1ccc(Nc2nc(NC3(c4ccc(Cl)cc4)CC3)nc(OCC(F)(F)F)n2)cc1` [Compound 1132], the EC50 under setting [2] lay within 0.01 to 10 nM.

On to `Cc1ccc(COc2nc(Nc3ccc(C(=O)NCC(C)(C)CNC(=O)C(=O)Nc4ccc(C)cc4)cc3)nc(NC3(c4ccc(Cl)cc4)CC3)n2)cc1` [Compound 3848], for which, under setting [3], the EC50 lay within 0.01 to 10 nM.
